Reference: patent publication US20190055231A1, “BACE1 INHIBITORS” (Hoffmann-La Roche Inc., priority 2016, published 2019)

Columns and labels:
BACE1 [1] = molecular target: T1, BACE1 (Homo sapiens, UniProt P56817); assay: BACE1 cell-free assay (BACE1 enzyme assay); format: biochemical
Description: BACE1 Cell-Free Assay (BACE1 Enzyme Assay)
(§1) The determination of BACE1 activity can be either measured by using an enzymatic cell-free fluorescence assay (BACE1 cell free, table 2) or by a whole cell assay using HEK293 APP cells (Cellular Aβ-lowering, table 2). Both assays are suitable to determine BACE1 inhibition.

BACE2 = molecular target: T2, BACE2 (Homo sapiens, UniProt Q9Y5Z0); assay: BACE2 cell-free assay (BACE2 enzyme assay); format: biochemical; conditions: for BACE2/BACE1 IC50 ratio: BACE2 IC50 divided by BACE1 IC50, cell free assays
T2 sequence (Q9Y5Z0 63-518): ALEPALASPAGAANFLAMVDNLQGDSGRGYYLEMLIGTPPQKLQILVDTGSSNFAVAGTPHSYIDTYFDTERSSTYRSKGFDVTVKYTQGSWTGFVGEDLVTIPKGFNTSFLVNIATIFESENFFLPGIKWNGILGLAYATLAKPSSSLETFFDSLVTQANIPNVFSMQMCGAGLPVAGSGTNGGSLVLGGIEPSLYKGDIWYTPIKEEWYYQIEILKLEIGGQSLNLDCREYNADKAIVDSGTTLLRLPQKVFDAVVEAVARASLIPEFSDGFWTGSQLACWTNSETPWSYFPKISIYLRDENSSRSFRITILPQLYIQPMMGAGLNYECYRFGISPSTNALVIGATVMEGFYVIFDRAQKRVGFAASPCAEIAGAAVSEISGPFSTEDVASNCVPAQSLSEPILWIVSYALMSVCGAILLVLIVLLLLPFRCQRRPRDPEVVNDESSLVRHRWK
Description: BACE2 Cell-Free Assay (BACE2 Enzyme Assay)
Selectivity versus related targets is important in terms of safety of a drug candidate. BACE2 is a close homolog of BACE1. BACE2 was recently reported to play a crucial role in pigmentation of the skin by processing pigment cell-specific melanocyte protein (PMEL). (Proc Natl Acad Sci USA. 2013 Jun. 25; 110(26):10658-63. doi: 10.1073/pnas.1220748110. Epub 2013 Jun. 10). It is believed that PMEL contributes in melanogenesis. Therefore, selectivity versus BACE2 is advantageous when it comes to pigmentation of the skin. The selectivity ratio of BACE2/BACE1 IC50 was calculated by dividing the BACE2 IC50 value by the BACE1 IC50 value determined each in the cell free assay. […] This implies a 3-fold improvement of example 1 compared to comparators 4 and 5.

BACE1 [2] = molecular target: T1, BACE1; assay: BACE1 KD SPR assay; format: binding; conditions: Surface Plasmon Resonance
Experimental: Surface Plasmon Resonance measurements were performed on a Biacore T200 instrument. Immobilization of BACE-1 was performed by standard amine coupling chemistry on a CMS sensor to achieve protein surface density of ˜8000 pg/mm2 (RU). Immobilization was performed using the acetate buffer (25 mM Na acetate, 150 mM NaCl, 0.01% P20, 3 mM EDTA, pH 4.5) as the running buffer at 25° C. In the first step the carboxyl groups of CMS sensor surface were transformed to the reactive succinimide esters by contacting the sensor surface 7 minutes with a solution of 0.2 M N-ethyl-N-dimethylaminopolycarboodiimide (EDC) and 0.05 M N-hydroxysuccinimide (NHS). After the activation, the sensor surface was contacted with (˜5 μgml-1 BACE1 protein solution in 10 mM sodium acetate coupling buffer (pH 4.5) to reach desired protein surface density. Finally, the excess of activated carboxylic groups on the surface was quenched with ethanolamine (1 M, pH 8.5, 7 min).
Binding assays were performed at 18° C. under the same buffer conditions as immobilization of the protein. Compounds were dissolved in DMSO as 10 mM stocks and diluted in running buffer to perform titration series (5 concentrations with dilution factor of 2) on a protein and reference (activated and deactivated CMS sensor surface) surfaces in parallel.

hERG channel = hERG channel (Homo sapiens, UniProt Q12809); assay: hERG patch liner assay; format: cell-based
Description: The methods to determine the hERG IC20 patch liner values were described in Toward a New Gold Standard for Early Safety: Automated Temperature-Controlled hERG Test on the PatchLiner. Polonchuk L., Front Pharmacol. 2012 Jan. 26; 3:3. (doi: 10.3389/fphar.2012.00003. eCollection 2012.) PMID:22303293

Human P-gp = Human P-gp (Homo sapiens, UniProt P08183); assay: P-gp transport assay (human); format: in vitro ADME; conditions: efflux ratio
Description: (§2) P-Gp Transport Assay (Human and Mouse) (P-Gp Assay)
(§3) In the assay of the P-gp efflux ratio ER as described hereinabove, a compound with ER<2.5 is regarded most suitable. In addition, compounds with low hERG channel binding are suitable as well.

Mouse P-gp = Mouse P-gp (Mus musculus, UniProt P21447); assay: P-gp transport assay (mouse); format: in vitro ADME; conditions: efflux ratio
Description: as §2, §3

[3] = Cynomolgus monkey single dose PK study; format: in vivo, Cynomolgus monkey (Macacaca fascicularis)
Description: Cynomolgus Monkey (Macacaca fascicularis) Single Dose PK Study and Plasma Aβ40 Determination
Blood and plasma collection will always be performed in the treatment cage. The animal care keeper grabs either one arm or one leg through the bars. The hairs are shaved for better visibility of the vein. The blood vessel is squeezed, the vein is punctured by using a butterfly and blood is taken. Once enough blood has been withdrawn a cotton swab is placed over the injection site and the needle is gently removed. Bleeding is stopped by pressing a cotton swab on the wound. Plasma samples were taken between 5 min and 48 h.
Plasma Preparation Cynomolgus
Blood is transferred into a labeled EDTA-K2 Eppendorf tube and the sample is mixed by inverting the tubes several times. Blood is stored at −20° C.

BACE1 [4] = molecular target: T1, BACE1; assay: Cellular Aβ-lowering assay (Abeta 40 AlphaLISA, HEK293 APP cells); format: cell-based; design: endogenous in cells; host or cells: HEK293 APP cells; conditions: HEK293 APP cells, Aβ40 in supernatant; read-out: BACE1 cell act. Aβ40 IC50
Experimental: Cellular Aβ-Lowering Assay:
The Abeta 40 AlphaLISA Assay can be used. The HEK293 APP cells were seeded in 96 well Microtiter plates in cell culture medium (Iscove's, plus 10% (v/v) fetal bovine serum, penicillin/streptomycin) to about 80% confluency and the compounds were added at a 3× concentration in ⅓ volume of culture medium (final DMSO concentration was kept at 1% v/v). After 18-20 hrs incubation at 37° C. and 5% CO2 in a humidified incubator, the culture supernatants were harvested for the determination of AP 40 concentrations using Perkin-Elmer Human Amyloid beta 1-40 (high specificity) Kit (Cat#AL275C).
In a Perkin-Elmer White Optiplate-384 (Cat#6007290), 2 ul culture supernatants were combined with 2 μl of a 10× AlphaLISA Anti-hAP Acceptor beads+Biotinylated Antibody Anti-Aβ 1-40 Mix (50 μg/mL/5 nM). After 1 hour room temperature incubation, 16 μl of a 1.25× preparation of Streptavidin (SA) Donor beads (25 μg/mL) were added and incubated for 30 minutes in the Dark. Light Emission at 615 nm was then recorded using EnVision-Alpha Reader. Levels of AP 40 in the culture supernatants were calculated as percentage of maximum signal (cells treated with 1% DMSO without inhibitor). The IC50 value were calculated using the Excel XLfit software.
Cellular Aβ-Lowering Assay (Cell-Based Assay)
as §1

T1 sequence (P56817 46-501): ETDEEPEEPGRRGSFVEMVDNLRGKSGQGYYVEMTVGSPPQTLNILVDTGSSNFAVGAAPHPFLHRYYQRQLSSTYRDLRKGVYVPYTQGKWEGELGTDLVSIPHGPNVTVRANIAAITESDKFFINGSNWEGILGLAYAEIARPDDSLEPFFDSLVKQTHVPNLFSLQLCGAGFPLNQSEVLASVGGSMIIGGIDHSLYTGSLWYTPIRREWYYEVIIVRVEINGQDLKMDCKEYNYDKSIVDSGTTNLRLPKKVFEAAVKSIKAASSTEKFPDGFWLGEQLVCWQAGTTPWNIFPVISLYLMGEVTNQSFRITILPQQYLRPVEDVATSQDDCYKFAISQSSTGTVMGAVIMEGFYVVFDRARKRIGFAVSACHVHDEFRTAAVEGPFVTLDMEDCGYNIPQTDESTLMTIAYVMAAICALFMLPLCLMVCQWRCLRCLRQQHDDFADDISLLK
Chain of hERG channel (Q12809 whole entry): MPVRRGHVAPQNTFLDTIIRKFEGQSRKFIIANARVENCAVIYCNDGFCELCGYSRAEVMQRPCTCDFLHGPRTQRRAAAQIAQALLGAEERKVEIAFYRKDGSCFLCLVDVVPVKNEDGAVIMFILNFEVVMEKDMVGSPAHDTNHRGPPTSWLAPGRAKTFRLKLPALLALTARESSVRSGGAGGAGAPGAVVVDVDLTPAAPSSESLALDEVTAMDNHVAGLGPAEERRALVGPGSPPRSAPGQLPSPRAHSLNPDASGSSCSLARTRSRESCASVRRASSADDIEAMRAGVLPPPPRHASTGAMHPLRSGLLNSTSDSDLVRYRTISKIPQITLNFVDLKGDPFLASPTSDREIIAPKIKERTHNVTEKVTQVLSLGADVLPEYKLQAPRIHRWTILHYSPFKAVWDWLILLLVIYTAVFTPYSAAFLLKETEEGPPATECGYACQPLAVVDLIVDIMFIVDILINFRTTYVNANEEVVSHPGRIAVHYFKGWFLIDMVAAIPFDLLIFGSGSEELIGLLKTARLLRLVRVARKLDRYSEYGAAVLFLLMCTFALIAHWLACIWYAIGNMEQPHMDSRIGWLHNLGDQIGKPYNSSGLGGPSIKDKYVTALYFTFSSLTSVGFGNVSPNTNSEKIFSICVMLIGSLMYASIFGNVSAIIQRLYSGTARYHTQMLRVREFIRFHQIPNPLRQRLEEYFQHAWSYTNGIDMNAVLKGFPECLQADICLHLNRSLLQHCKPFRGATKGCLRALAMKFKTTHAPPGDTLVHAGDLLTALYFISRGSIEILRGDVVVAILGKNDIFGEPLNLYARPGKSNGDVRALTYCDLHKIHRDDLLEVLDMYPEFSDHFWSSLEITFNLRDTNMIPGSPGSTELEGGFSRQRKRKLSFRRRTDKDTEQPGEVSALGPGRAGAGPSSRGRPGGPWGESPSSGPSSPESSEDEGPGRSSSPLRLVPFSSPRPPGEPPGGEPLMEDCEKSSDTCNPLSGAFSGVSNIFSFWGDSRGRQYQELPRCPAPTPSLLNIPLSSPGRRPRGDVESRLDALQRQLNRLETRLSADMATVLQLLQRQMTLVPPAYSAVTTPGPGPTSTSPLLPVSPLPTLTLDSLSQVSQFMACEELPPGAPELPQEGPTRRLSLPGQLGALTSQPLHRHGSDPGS
Chain of Human P-gp (P08183 whole entry): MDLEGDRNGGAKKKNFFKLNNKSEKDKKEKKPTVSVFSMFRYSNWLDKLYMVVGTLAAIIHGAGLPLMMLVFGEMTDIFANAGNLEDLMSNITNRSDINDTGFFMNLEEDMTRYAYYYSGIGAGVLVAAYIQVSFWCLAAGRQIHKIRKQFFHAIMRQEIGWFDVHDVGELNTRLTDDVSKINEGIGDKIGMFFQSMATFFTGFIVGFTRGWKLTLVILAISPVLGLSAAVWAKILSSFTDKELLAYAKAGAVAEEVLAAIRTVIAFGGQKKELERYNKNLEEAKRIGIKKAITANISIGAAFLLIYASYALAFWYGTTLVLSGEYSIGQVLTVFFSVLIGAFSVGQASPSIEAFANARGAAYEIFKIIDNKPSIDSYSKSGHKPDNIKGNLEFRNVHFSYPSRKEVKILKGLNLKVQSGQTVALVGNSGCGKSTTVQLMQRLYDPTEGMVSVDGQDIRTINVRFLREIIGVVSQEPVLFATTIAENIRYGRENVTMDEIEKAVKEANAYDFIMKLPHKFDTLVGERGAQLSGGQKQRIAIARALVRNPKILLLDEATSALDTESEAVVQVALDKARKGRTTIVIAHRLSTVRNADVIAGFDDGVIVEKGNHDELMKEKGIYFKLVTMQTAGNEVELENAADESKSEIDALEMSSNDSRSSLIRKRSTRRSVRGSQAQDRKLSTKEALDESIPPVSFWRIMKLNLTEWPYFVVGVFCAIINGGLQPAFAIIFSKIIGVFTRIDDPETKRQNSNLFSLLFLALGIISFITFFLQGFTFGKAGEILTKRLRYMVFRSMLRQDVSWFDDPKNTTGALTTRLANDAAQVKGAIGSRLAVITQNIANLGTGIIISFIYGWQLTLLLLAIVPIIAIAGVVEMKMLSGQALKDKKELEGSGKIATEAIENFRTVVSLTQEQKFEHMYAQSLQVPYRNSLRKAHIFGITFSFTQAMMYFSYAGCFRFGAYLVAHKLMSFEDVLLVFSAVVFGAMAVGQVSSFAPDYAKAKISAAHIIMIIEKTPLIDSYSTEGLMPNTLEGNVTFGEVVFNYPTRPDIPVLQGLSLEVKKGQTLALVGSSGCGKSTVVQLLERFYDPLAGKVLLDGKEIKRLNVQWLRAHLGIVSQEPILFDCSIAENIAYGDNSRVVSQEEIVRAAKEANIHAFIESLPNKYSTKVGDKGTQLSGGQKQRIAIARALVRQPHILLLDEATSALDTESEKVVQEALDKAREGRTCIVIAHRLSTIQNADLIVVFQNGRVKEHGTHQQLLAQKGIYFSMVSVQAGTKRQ
Chain of Mouse P-gp (P21447 whole entry): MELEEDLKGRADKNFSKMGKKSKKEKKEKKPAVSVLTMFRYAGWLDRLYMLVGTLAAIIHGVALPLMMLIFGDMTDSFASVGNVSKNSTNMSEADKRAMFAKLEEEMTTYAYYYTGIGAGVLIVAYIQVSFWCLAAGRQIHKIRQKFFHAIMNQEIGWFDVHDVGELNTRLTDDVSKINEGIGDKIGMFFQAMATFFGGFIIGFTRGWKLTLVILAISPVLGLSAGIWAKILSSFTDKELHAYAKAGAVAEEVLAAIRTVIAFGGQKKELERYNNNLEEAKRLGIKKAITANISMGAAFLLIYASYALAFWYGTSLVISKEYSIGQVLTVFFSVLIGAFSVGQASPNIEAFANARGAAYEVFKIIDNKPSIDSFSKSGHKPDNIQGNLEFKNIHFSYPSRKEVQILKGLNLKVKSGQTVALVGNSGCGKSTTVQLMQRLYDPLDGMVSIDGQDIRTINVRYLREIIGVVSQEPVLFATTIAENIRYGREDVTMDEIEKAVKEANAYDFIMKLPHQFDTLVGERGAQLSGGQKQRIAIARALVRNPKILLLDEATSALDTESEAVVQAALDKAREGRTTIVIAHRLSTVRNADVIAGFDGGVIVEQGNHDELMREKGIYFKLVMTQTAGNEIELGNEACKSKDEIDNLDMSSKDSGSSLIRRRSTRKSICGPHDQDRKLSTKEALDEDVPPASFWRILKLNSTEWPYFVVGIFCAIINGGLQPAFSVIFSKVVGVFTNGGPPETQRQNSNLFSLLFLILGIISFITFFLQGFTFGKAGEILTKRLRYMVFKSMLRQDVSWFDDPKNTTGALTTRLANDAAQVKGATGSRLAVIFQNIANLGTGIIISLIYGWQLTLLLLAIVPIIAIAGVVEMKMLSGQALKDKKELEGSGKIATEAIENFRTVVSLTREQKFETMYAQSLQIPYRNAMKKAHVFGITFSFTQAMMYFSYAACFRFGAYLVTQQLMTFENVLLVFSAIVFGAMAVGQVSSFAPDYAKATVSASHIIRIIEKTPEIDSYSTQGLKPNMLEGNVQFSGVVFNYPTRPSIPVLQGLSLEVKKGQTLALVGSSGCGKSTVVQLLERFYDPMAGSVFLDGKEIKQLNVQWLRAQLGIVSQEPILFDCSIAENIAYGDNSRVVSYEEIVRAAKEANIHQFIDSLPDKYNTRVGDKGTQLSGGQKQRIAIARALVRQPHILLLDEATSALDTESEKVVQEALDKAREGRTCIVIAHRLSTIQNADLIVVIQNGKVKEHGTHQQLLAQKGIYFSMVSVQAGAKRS

IC50 (BACE1 [1]): 36 nM
improvement of BACE2/BACE1 selectivity compared to comparators 4 and 5 (BACE2): 3 fold
BACE2/BACE1 IC50 ratio (BACE2): 2.0
BACE2/BACE1 IC50 ratio (BACE2; listed as example 1): 2
Kd (BACE1 [2]; 18° C., pH 4.5): 2 nM
residence time (BACE1 [2]; t1/2=0.693/koff): 16 min
Human P-gp ER (Human P-gp): 1.7
Mouse P-gp ER (Mouse P-gp): 3.5
AUC(0-24)/D p.o. ([3]; p.o., dose normalized): 4160 kg·ng·h/mL/mg
clearance ([3]; plasma): 2.1 mL/min/kg
bioavailability ([3]; plasma, po, read-out: Oral Bioavailability F): 52%
half-life ([3]; plasma, po, read-out: t1/2 p.o. (converted)): 19 h
IC50 (BACE1 [4]): 15 nM
Compound: Cc1cc(C#N)cnc1C(=O)Nc1ccc(F)c([C@@]2(C)N=C(N)O[C@H](C(F)(F)F)[C@@H]2F)n1 [Example 1, N-(6-((4R,5R,6S)-2-amino-5-fluoro-4-methyl-6-(trifluoromethyl)-5,6-dihydro-4H-1,3-oxazin-4-yl)-5-fluoropyridin-2-yl)-5-cyano-3-methylpicolinamide]
improvement of the hERG safety margin versus comparator 6 (hERG channel; at approximately 80% reduction of Aβ40 in rat CSF): 17 fold
IC20 (hERG channel; human, hERG patchliner assay): 2340 nM
